From patent US20230233439A1, “METHOD FOR COSMETIC TREATMENT BY COMBINED ILLUMINATION AND APPLICATION OF A COMPOSITION COMPRISING NIACINAMIDE, AND ASSOCIATED DEVICE” (LIGHTINDERM, priority 2020, published 2023)

Legend:
Assay type in all cases: cell-based
procollagen-1 = experiment: Procollagen-1 production by fibroblasts exposed to UVA and UVB; settings: niacinamide 0.4 mg/ml combined with illumination at 660 nm, programs 3 and 8; compared with niacinamide alone and with illumination alone; FIG. 3
Protocol: The inflammation of the cells and the measurement of the antiaging effect are based on the irradiation of a cell culture with a combination of UVA and UVB. […] Pure niacinamide at a concentration of 0.4 mg/mL or 1.2 mg/mL is used. Attention is now focused on skin aging, known as “photoaging”, induced by UV exposure. One of the parameters of cutaneous aging observed clinically is the appearance of wrinkles associated in part with a decrease in collagen production by the cells of the dermis, the fibroblasts. […] The production of procollagen-1 produced by fibroblasts is measured in the supernatants obtained from the previously defined protocol in which the cells were illuminated either without any other treatment or in combination with niacinamide at a concentration of 0.4 mg/ml, and compared with treatment with niacinamide alone at a concentration of 0.4 mg/ml. The results are shown in FIG. 3 for illumination programs 3 and 8.

interleukin-8 = experiment: Protection of UVA/UVB-irradiated keratinocytes measured by interleukin-8 production
Protocol: (§1) The inflammation of the cells and the measurement of the antiaging effect are based on the irradiation of a cell culture with a combination of UVA and UVB. […] Pure niacinamide at a concentration of 0.4 mg/mL or 1.2 mg/mL is used. For the treatments inducing illumination at 660 nm, 10 different programs are evaluated. These programs are defined in Table 1 below. [table] […] Free radicals are reactive and induce an inflammatory cascade characterized by the production of proinflammatory proteins (p53, pro-opiomelanocortin (POMC), interleukins, etc.) which can be measured in the cell supernatant. […] According to the protocol, at T+48 h, the cell supernatant is collected and the concentrations of interleukins 6 and 8 are measured and compared to the concentrations of interleukins 6 and 8 produced by cells exposed to UV and not subjected to any of the three abovementioned treatments (UV control) and to untreated and non-irradiated cells (non-irradiated control). A degree of protection of the treated cells relative to the UV control is evaluated according to the following formula: Non-irradiated cells show 100% protection and irradiated cells show 0% protection. […]

interleukin-6 = experiment: Protection of UVA/UVB-irradiated keratinocytes measured by interleukin-6 production
Protocol: as §1

[1] = niacinamide 1.2 mg/ml combined with illumination at 660 nm, all illumination programs

NC(=O)c1cccnc1 [niacinamide]
production of procollagen-1 (procollagen-1): Increased production
protection of the skin cells (interleukin-8) compared with illumination alone at 660 nm (interleukin-8; [1]): much greater protection
protection of cells exposed to UV (interleukin-8 concentration) (interleukin-8; niacinamide 1.2 mg/ml combined with pulsed illumination at 660 nm, all 10 programs, relative to UV-exposed cells and/or niacinamide alone, effects particularly visible, FIG. 2): beneficial effect
protection of the skin cells (interleukin-6) compared with illumination alone at 660 nm (interleukin-6; [1]): much greater protection
protection of cells exposed to UV (interleukin-6 concentration) (interleukin-6; niacinamide 1.2 mg/ml combined with pulsed illumination at 660 nm, all 10 programs, relative to UV-exposed cells and/or niacinamide alone, FIG. 1): beneficial effect
